From patent US8853230B2, “Inhibitors of JAK” (Portola Pharmaceuticals, Inc., priority 2009, dated 2014)
pIC50: −log10 of the molar value.

What was measured:
JAK1 = target: T1, JAK1 (Homo sapiens, UniProt P23458); assay: Z'-LYTE kinase assay, JAK1 tyrosine phosphorylation activity; assay type: biochemical; conditions: read-out: JAK 1 IC50
T1 construct: 5 μl of catalytic domain recombinant Kinase enzyme+Tyr peptide substrate (Invitrogen, Calif.); purchased Invitrogen
Outline: (§1)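 Catalytic-domain recombinant enzymes phosphorylate a coumarin/fluorescein-labelled Tyr6 peptide for 1 h at room temperature in the presence of ATP and compound (1% DMSO). Development Reagent then cleaves non-phosphorylated peptide over 1 h, and emission ratio 445/520 nm (ex 400 nm) gives percent phosphorylation; IC50 by 4-parameter logistic model.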

JAK2 = target: T2, JAK2 (Homo sapiens, UniProt O60674); assay: Z'-LYTE kinase assay, JAK2 tyrosine phosphorylation activity; assay type: biochemical
T2 construct: 5 μl of catalytic domain recombinant Kinase enzyme+Tyr peptide substrate (Invitrogen, Calif.); purchased Invitrogen
Outline: as §1

JAK3 = target: T3, JAK3 (Homo sapiens, UniProt P52333); assay: Z'-LYTE kinase assay, JAK3 tyrosine phosphorylation activity; assay type: biochemical
T3 construct: 5 μl of catalytic domain recombinant Kinase enzyme+Tyr peptide substrate (Invitrogen, Calif.); purchased Invitrogen
Outline: as §1

TYK2 = target: T4, TYK2 (Homo sapiens, UniProt P29597); assay: Z'-LYTE kinase assay, TYK2 tyrosine phosphorylation activity; assay type: biochemical
T4 construct: 5 μl of catalytic domain recombinant Kinase enzyme+Tyr peptide substrate (Invitrogen, Calif.); purchased Invitrogen
T4 sequence (P29597 897-1176 limits assumed): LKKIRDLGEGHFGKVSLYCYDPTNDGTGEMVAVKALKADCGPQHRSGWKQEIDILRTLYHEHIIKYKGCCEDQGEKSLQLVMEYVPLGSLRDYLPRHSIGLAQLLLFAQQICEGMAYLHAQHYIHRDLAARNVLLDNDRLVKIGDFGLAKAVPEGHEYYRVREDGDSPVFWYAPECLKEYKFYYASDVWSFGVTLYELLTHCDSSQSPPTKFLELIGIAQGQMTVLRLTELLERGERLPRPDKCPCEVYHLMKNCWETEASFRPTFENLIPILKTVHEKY
Outline: as §1

[1] = tested on: IL4-induced phospho STAT6 formation in Ramos B lymphocytes; assay: Inhibition of IL4-induced phospho STAT6 formation in Ramos B lymphocytes (flow cytometry); assay type: cell-based, human; conditions: Homo sapiens; for inhibition at 0.2 µM: 200 nM compound, read-out: % Inhibition of IL-4 Induced STAT6 Phosphorylation 200 nM; for inhibition at 1 µM: 1 μM compound, read-out: % Inhibition of IL-4 Induced STAT6 Phosphorylation 1 μM
From the text: Similar types of assays can be used to assess JAK inhibitory activity and to determine the degree of selectivity of the particular compound as compared to syk. One means of assaying for such inhibition is detection of the effect of the compounds of the present invention on the upregulation of downstream gene products. In the Ramos/IL4 assay, B-cells are stimulated with the cytokine Interleukin-4 (IL-4) leading to the activation of the JAK/Stat pathway through phosphorylation of the JAK family kinases, JAK1 and JAK3, which in turn phosphorylate and activate the transcription factor Stat-6. […] To study the effect of inhibitors (e.g., the 2,4-substituted pyrimindinediamine compounds described herein) on the JAK1 and JAK3, human Ramos B-cells are stimulated with human IL-4. 10′ post-stimulation, cells are subjected to intracellular flow cytometry to measure the extent of STAT-6 phosphorylation. 20 to 24 hours post-stimulation, cells are stained for upregulation of CD23 and analyzed using flow cytometry.
Inhibition of IL4-induced phospho STAT6 formation was measured by pre-incubating 0.5 million Ramos B lymphocytes (ATCC) with 5 μl compound or DMSO vehicle for 1 hour at 37° C./5% CO2. Cells were activated by addition of 1 ng/ml [f]IL4 (R & D Research Systems) for 10 min at 37° C./5% CO2 and then fixed by addition of 1.6% [f]PFA (Electron Microscopy Services). Following a PBS wash step and permaeabilization with 100% methanol, cells were incubated with ALEXA-conjugated anti-phosphoSTAT6 (Y641) antibody (BD 612600). The extent of cell associated-fluorescence was determined by flow cytomentry and data expressed as mean fluorescent intensity. The extent of inhibition of the IL4-induced signal was then calculated.

T1 sequence (P23458 875-1153 limits assumed): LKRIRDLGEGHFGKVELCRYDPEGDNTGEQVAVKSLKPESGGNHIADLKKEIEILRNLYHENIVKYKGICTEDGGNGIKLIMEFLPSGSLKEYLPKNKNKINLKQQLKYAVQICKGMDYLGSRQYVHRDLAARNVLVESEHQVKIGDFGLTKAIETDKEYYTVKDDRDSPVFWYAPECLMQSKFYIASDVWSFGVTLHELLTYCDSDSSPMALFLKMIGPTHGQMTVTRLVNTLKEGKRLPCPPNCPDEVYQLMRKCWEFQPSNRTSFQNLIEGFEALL
T2 sequence (O60674 849-1124 limits assumed): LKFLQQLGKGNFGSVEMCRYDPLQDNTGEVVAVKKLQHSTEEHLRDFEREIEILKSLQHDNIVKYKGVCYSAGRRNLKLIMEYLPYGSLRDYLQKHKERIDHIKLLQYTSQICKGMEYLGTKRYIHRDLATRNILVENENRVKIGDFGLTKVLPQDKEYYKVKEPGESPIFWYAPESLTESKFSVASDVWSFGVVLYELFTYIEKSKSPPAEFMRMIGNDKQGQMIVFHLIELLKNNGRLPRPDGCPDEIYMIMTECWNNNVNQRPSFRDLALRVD
T3 sequence (P52333 822-1111 limits assumed): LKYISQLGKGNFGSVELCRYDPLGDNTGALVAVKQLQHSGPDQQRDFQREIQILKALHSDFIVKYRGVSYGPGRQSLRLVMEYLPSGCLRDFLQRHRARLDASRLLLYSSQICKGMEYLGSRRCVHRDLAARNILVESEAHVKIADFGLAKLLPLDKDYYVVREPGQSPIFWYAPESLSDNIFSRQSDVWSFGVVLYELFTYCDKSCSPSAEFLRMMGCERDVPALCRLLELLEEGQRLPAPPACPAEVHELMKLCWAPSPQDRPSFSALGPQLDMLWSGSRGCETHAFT

C[C@H]1CCCN1C(=O)Nc1cccc(Nc2ncc(C(N)=O)c(NCc3ccccc3)n2)c1 [Example 139, (S)-4-(benzylamino)-2-(3-(2-methylpyrrolidine-1-carboxamido)phenylamino)pyrimidine-5-carboxamide]
pIC50 (JAK1): 7.00 to 8.00 | pIC50 (JAK2): 7.00 to 8.00 | pIC50 (JAK3): 8.00 to 9.00 | pIC50 (TYK2): 8.00 to 9.00 | inhibition at 0.2 µM [1]: 25.3% | inhibition at 1 µM [1]: 74.3%

COCC(=O)Nc1ccc(F)c(Nc2ncc(C(N)=O)c(NCc3ccccc3)n2)c1 [Example 172, 4-(benzylamino)-2-(2-fluoro-5-(2-methoxyacetamido)phenylamino)pyrimidine-5-carboxamide]
pIC50 (JAK1): 6.00 to 7.00 | pIC50 (JAK2): 6.00 to 7.00 | pIC50 (JAK3): 7.00 to 8.00 | pIC50 (TYK2): 6.00 to 7.00 | inhibition at 0.2 µM [1]: 11.3% | inhibition at 1 µM [1]: 33%

COc1ccc(Nc2ncc(C(N)=O)c(NCc3ccccc3)n2)cc1NC(=O)N1CCCC1 [Example 163, 4-(benzylamino)-2-(4-methoxy-3-(pyrrolidine-1-carboxamido)phenylamino)pyrimidine-5-carboxamide]
pIC50 (JAK1): 7.00 to 8.00 | pIC50 (JAK2): 7.00 to 8.00 | pIC50 (JAK3): 8.00 to 9.00 | pIC50 (TYK2): 8.00 to 9.00 | inhibition at 0.2 µM [1]: 20.7% | inhibition at 1 µM [1]: 61%

COC[C@H]1CCCN1C(=O)Nc1cccc(Nc2ncc(C(N)=O)c(N[C@H](C)c3ccccc3)n2)c1 [Example 149, 2-(3-((R)-2-(methoxymethyl)pyrrolidine-1-carboxamido)phenylamino)-4-((R)-1-phenylethylamino)pyrimidine-5-carboxamide]
pIC50 (JAK1): 6.00 to 7.00 | pIC50 (JAK2): 7.00 to 8.00 | pIC50 (JAK3): 8.00 to 9.00 | pIC50 (TYK2): 7.00 to 8.00 | inhibition at 0.2 µM [1]: 6.7% | inhibition at 1 µM [1]: 44%

CNC(=O)Nc1cc(Nc2ncc(C(N)=O)c(NCc3ccccc3)n2)ccc1C [Example 157, 4-(benzylamino)-2-(4-methyl-3-(3-methylureido)phenylamino)pyrimidine-5-carboxamide]
pIC50 (JAK1): 7.00 to 8.00 | pIC50 (JAK2): 7.00 to 8.00 | pIC50 (JAK3): 8.00 to 9.00 | pIC50 (TYK2): 8.00 to 9.00 | inhibition at 0.2 µM [1]: 23% | inhibition at 1 µM [1]: 31.7%

CN(C)[C@@H]1CCN(C(=O)Nc2cccc(Nc3ncc(C(N)=O)c(NCc4ccccc4)n3)c2)C1 [Example 210, (R)-4-(benzylamino)-2-(3-(3-(dimethylamino)pyrrolidine-1-carboxamido)phenylamino)pyrimidine-5-carboxamide]
pIC50 (JAK1): 7.00 to 8.00 | pIC50 (JAK2): 7.00 to 8.00 | pIC50 (JAK3): 8.00 to 9.00 | pIC50 (TYK2): 8.00 to 9.00 | inhibition at 0.2 µM [1]: 48% | inhibition at 1 µM [1]: 81.7%

NC(=O)c1cnc(Nc2ccc(Cl)c(NC(=O)N3CCCCC3)c2)nc1NCc1ccccc1 [Example 209, 4-(benzylamino)-2-(4-chloro-3-(piperidine-1-carboxamido)phenylamino)pyrimidine-5-carboxamide]
pIC50 (JAK1): < 6.00 | pIC50 (JAK2): < 6.00 | pIC50 (JAK3): 8.00 to 9.00 | pIC50 (TYK2): 6.00 to 7.00 | inhibition at 0.2 µM [1]: 0.3% | inhibition at 1 µM [1]: 1%

COCC(=O)Nc1cc(Nc2ncc(C(N)=O)c(NCc3ccccc3)n2)ccc1Cl [Example 106, 4-(benzylamino)-2-(4-chloro-3-(2-methoxyacetamido)phenylamino)pyrimidine-5-carboxamide]
pIC50 (JAK1): 6.00 to 7.00 | pIC50 (JAK2): 6.00 to 7.00 | pIC50 (JAK3): 7.00 to 8.00 | pIC50 (TYK2): 7.00 to 8.00 | inhibition at 0.2 µM [1]: 16.8% | inhibition at 1 µM [1]: 27.8%

CC(=O)Nc1cccc(Nc2cc(NCc3ccccc3)c(C(N)=O)cn2)c1 [Example 213, 6-(3-acetamidophenylamino)-4-(benzylamino)nicotinamide]
pIC50 (JAK1): 6.00 to 7.00 | pIC50 (JAK2): 6.00 to 7.00 | pIC50 (JAK3): 7.00 to 8.00 | pIC50 (TYK2): 6.00 to 7.00 | inhibition at 0.2 µM [1]: 11.3% | inhibition at 1 µM [1]: 35.3%

CN1CCN(C(=O)Nc2cccc(Nc3ncc(C(N)=O)c(NCc4ccccc4)n3)c2)CC1 [Example 216, 4-(benzylamino)-2-(3-(4-methylpiperazine-1-carboxamido)phenylamino)pyrimidine-5-carboxamide]
pIC50 (JAK1): 7.00 to 8.00 | pIC50 (JAK2): 7.00 to 8.00 | pIC50 (JAK3): > 9.00 | pIC50 (TYK2): 8.00 to 9.00 | inhibition at 0.2 µM [1]: 57.3% | inhibition at 1 µM [1]: 91%

COC[C@H]1CCCN1C(=O)Nc1cccc(Nc2ncc(C(N)=O)c(NCc3ccccc3)n2)c1 [Example 147, (R)-4-(benzylamino)-2-(3-(2-(methoxymethyl)pyrrolidine-1-carboxamido)phenylamino)pyrimidine-5-carboxamide]
pIC50 (JAK1): 7.00 to 8.00 | pIC50 (JAK2): 7.00 to 8.00 | pIC50 (JAK3): 8.00 to 9.00 | pIC50 (TYK2): 8.00 to 9.00 | inhibition at 0.2 µM [1]: 28.7% | inhibition at 1 µM [1]: 82%

COC[C@@H]1CCCN1C(=O)Nc1cccc(Nc2ncc(C(N)=O)c(NCc3ccccc3)n2)c1 [Example 140, (S)-4-(benzylamino)-2-(3-(2-(methoxymethyl)pyrrolidine-1-carboxamido)phenylamino)pyrimidine-5-carboxamide]
pIC50 (JAK1): 7.00 to 8.00 | pIC50 (JAK2): 7.00 to 8.00 | pIC50 (JAK3): 8.00 to 9.00 | pIC50 (TYK2): 8.00 to 9.00 | inhibition at 0.2 µM [1]: 21.7% | inhibition at 1 µM [1]: 69%

CC(=O)Nc1cc(Nc2ncc(C(N)=O)c(NCc3ccccc3)n2)ccc1C [Example 155, 2-(3-acetamido-4-methylphenylamino)-4-(benzylamino)pyrimidine-5-carboxamide]
pIC50 (JAK1): 7.00 to 8.00 | pIC50 (JAK2): 7.00 to 8.00 | pIC50 (JAK3): 8.00 to 9.00 | pIC50 (TYK2): 8.00 to 9.00 | inhibition at 0.2 µM [1]: 71.7% | inhibition at 1 µM [1]: 88%

NC(=O)c1cnc(Nc2cccc(NC(=O)N3CC=CC3)c2)nc1NCc1ccccc1 [Example 142, 4-(benzylamino)-2-(3-(2,5-dihydro-1H-pyrrole-1-carboxamido)phenylamino)pyrimidine-5-carboxamide]
pIC50 (JAK1): 7.00 to 8.00 | pIC50 (JAK2): 7.00 to 8.00 | pIC50 (JAK3): 8.00 to 9.00 | pIC50 (TYK2): 8.00 to 9.00 | inhibition at 0.2 µM [1]: 41.3% | inhibition at 1 µM [1]: 79.3%

CC(=O)Nc1ccc(F)c(Nc2ncc(C(N)=O)c(NCc3ccccc3)n2)c1 [Example 171, 2-(5-acetamido-2-fluorophenylamino)-4-(benzylamino)pyrimidine-5-carboxamide]
pIC50 (JAK1): 6.00 to 7.00 | pIC50 (JAK2): 6.00 to 7.00 | pIC50 (JAK3): 7.00 to 8.00 | pIC50 (TYK2): 6.00 to 7.00 | inhibition at 0.2 µM [1]: 7.3% | inhibition at 1 µM [1]: 15.3%

CC(=O)Nc1cccc(Nc2ncc(C(N)=O)c(NCc3cccc(F)c3)n2)c1 [Example 94, 2-(3-acetamidophenylamino)-4-(3-fluorobenzylamino)pyrimidine-5-carboxamide]
pIC50 (JAK1): 7.00 to 8.00 | pIC50 (JAK2): 7.00 to 8.00 | pIC50 (JAK3): 8.00 to 9.00 | pIC50 (TYK2): 7.00 to 8.00

COCC(=O)Nc1cccc(Nc2ncc(C(N)=O)c(NCC3CC3)n2)c1 [Example 124, 4-(cyclopropylmethylamino)-2-(3-(2-methoxyacetamido)phenylamino)pyrimidine-5-carboxamide]
pIC50 (JAK1): 7.00 to 8.00 | pIC50 (JAK2): 7.00 to 8.00 | pIC50 (JAK3): 8.00 to 9.00 | pIC50 (TYK2): 8.00 to 9.00

CC(C)[C@@H](C)Nc1nc(Nc2ccc(Cl)c(NC(=O)N3CCCC3)c2)ncc1C(N)=O [Example 253, (R)-2-(4-chloro-3-(pyrrolidine-1-carboxamido)phenylamino)-4-(3-methylbutan-2-ylamino)pyrimidine-5-carboxamide]
pIC50 (JAK1): 7.00 to 8.00 | pIC50 (JAK2): 7.00 to 8.00 | pIC50 (JAK3): 8.00 to 9.00 | pIC50 (TYK2): 8.00 to 9.00

NC(=O)c1cnc(Nc2ccc(Cl)c(NC(=O)NC3CCC3)c2)nc1NCc1ccccc1 [Example 107, 4-(benzylamino)-2-(4-chloro-3-(3-cyclobutylureido)phenylamino)pyrimidine-5-carboxamide]
pIC50 (JAK1): < 6.00 | pIC50 (JAK2): < 6.00 | pIC50 (JAK3): 6.00 to 7.00 | pIC50 (TYK2): 6.00 to 7.00

CC(=O)Nc1cccc(Nc2cc(NCC3CCC3)c(C(N)=O)cn2)c1 [Example 331, 6-(3-acetamidophenylamino)-4-(cyclobutylmethylamino)nicotinamide]
pIC50 (JAK1): 6.00 to 7.00 | pIC50 (JAK2): 6.00 to 7.00 | pIC50 (JAK3): 7.00 to 8.00 | pIC50 (TYK2): 7.00 to 8.00
